Measurements as given in patent US7582645B2, “Pyrimidine derivatives for treatment of hyperproliferative disorders” (Bayer Pharmaceuticals Corporation, priority 2003, dated 2009).

The compounds below were run on HCT116 cells (assay: HCT116 cytotoxic activity assay (Alamar Blue, 72 h)). Settings: Homo sapiens, HCT-116, 72 h compound exposure, greater than 500 nM but less than or equal to 2 μM.
Assay type: cell-based
Description: Representative compounds of this invention were tested for cytotoxicity using the above-described assay procedure with the following results: […]

| SMILES | IC50 [nM] |
| --- | --- |
| COc1ccc(-c2cc(Nc3ccc(Oc4ccnc(C)c4)cc3)nc(N)n2)cc1OC [Example 319, 6-(3,4-dimethoxyphenyl)-N4*-{4-[(2-methylpyridin-4-yl)oxy]phenyl} pyrimidine-2,4-diamine] | 500 to 2000 |
| Cc1cc(Oc2ccc(Nc3cc(-c4ccccc4N)nc(N)n3)cc2)ccn1 [Example 322, 6-(2-aminophenyl)-N4*-{4-[(2-methylpyridin-4-yl)oxy]phenyl} pyrimidine-2,4-diamine] | 500 to 2000 |
| Cc1cc(Oc2ccc(Nc3cc(-c4cccc(OC(C)C)c4)nc(N)n3)cc2)ccn1 [Example 324, 6-(3-isopropoxyphenyl)-N4*-{4-[(2-methylpyridin-4-yl)oxy]phenyl} pyrimidine-2,4-diamine] | 500 to 2000 |
| Cc1cc(Oc2ccc(Nc3cc(-c4cccc(OC(F)(F)F)c4)nc(N)n3)cc2)ccn1 [Example 325, N4*-{4-[(2-methylpyridin-4-yl)oxy]phenyl}-6-[3-(trifluoromethoxy)phenyl]pyrimidine-2,4-diamine] | 500 to 2000 |

Same assay, conditions: Homo sapiens, HCT-116, 72 h compound exposure, greater than 2 μM

| SMILES | IC50 [nM] |
| --- | --- |
| Cc1cc(Oc2ccc(Nc3cc(-c4cccc(C(F)(F)F)c4)nc(N)n3)cc2)ccn1 [Example 314, N4*-{4-[(2-methylpyridin-4-yl)oxy]phenyl}-6-[3-(trifluoromethyl)phenyl] pyrimidine-2,4-diamine] | > 2000 |

Same assay, conditions: Homo sapiens, HCT-116, 72 h compound exposure, less than or equal to 500 nM

| SMILES | IC50 [nM] |
| --- | --- |
| Cc1cc(Oc2ccc(Nc3cc(-c4cccc(F)c4)nc(N)n3)cc2)ccn1 [Example 315, 6-(3-fluorophenyl)-N4*-{4-[(2-methylpyridin-4-yl)oxy]phenyl} pyrimidine-2,4-diamine] | ≤ 500 |
| COc1cccc(-c2cc(Nc3ccc(Oc4ccnc(C)c4)cc3)nc(N)n2)c1 [Example 316, 6-(3-methoxyphenyl)-N4*-{4-[(2-methylpyridin-4-yl)oxy]phenyl} pyrimidine-2,4-diamine] | ≤ 500 |
| CCc1ccc(-c2cc(Nc3ccc(Oc4ccnc(C)c4)cc3)nc(N)n2)cc1 [Example 317, 6-(4-ethylphenyl)-N4*-{4-[(2-methylpyridin-4-yl)oxy]phenyl} pyrimidine-2,4-diamine] | ≤ 500 |
| Cc1cc(Oc2ccc(Nc3cc(-c4ccc(N(C)C)cc4)nc(N)n3)cc2)ccn1 [Example 318, 6-[4-(dimethylamino)phenyl]-N4*- {4-[(2-methylpyridin-4-yl)oxy]phenyl}pyrimidine-2,4-diamine] | ≤ 500 |
| Cc1cc(Oc2ccc(Nc3cc(-c4cccc(N)c4)nc(N)n3)cc2)ccn1 [Example 320, 6-(3-aminophenyl)-N4*-{4-[(2-methylpyridin-4-yl)oxy]phenyl} pyrimidine-2,4-diamine] | ≤ 500 |
| Cc1cc(Oc2ccc(Nc3cc(-c4ccoc4)nc(N)n3)cc2)ccn1 [Example 321, 6-(3-furyl)-N4*-{4-[(2-methylpyridin-4-yl)oxy]phenyl} pyrimidine-2,4-diamine] | ≤ 500 |
| Cc1cc(Oc2ccc(Nc3cc(-c4ccc(C)c(N)c4)nc(N)n3)cc2)ccn1 [Example 323, 6-(3-amino-4-methylphenyl)-N4*-{4-[(2-methylpyridin-4-yl)oxy]phenyl} pyrimidine-2,4-diamine] | ≤ 500 |
| Nc1nc(Nc2ccc(Oc3ccnc(Cl)c3)cc2)cc(-c2ccc(OS(N)(=O)=O)cc2)n1 [Example 332, 4-[2-amino-6-({4-[(2-chloropyridin-4-yl)oxy]phenyl}amino)pyrimidin-4-yl]phenyl sulfamate] | ≤ 500 |
